Laboratory results published in patent US20230279024A1, “TRIAZINE COMPOUND AND COMPOSITION AND USE THEREOF” (BEIJING FINDCURE BIOSCIENCES, LTD., priority 2020, published 2023).

Assays:
Ba/F3 AXL cells = assay: Cell activity test: growth inhibition of Ba/F3 AXL cell line (CTG, 72 h); assay type: cell-based; details: Mus musculus, BaF3
Procedure: This experiment was conducted by detecting the inhibitory effect of compounds on the growth of Ba/F3 AXL cell line and Ba/F3 parental cell line. Cells in logarithmic growth stage were harvested and counted by platelet counter. Trypan blue rejection method was used to detect cell viability to ensure that the cell viability was above 90%. Adjust cell concentration; 90 μL cell suspension was added to 96-well plates, respectively; Cells in 96-well plates were cultured overnight at 37° C., 5% CO2 and 95% humidity. A 10-fold drug solution was prepared, with the highest concentration of 10 μM, and a total of 9 concentrations were diluted at 3.16 times the ratio. 10 μL drug solution was added to each well of the 96-well plate inoculated with cells, and three wells were set for each drug concentration; 96-well plates were incubated at 37° C., 5% CO2 and 95% humidity for 72 h, and CTG analysis was performed. Thaw the CTG reagent and balance the cell plates to room temperature for 30 minutes. Add the same volume of CTG solution to each well and vibrate on a fixed-rail shaker for 5 minutes to crack the cells. Place the cell plates at room temperature for 20 minutes to stabilize the cold light signal and read the cold light value. The GraphPad Prism 5.0 software was used to analyze the data, and the nonlinear S-curve regression was used to fit the data to obtain the dose-effect curve, and the IC50 value was calculated accordingly. Cell survival rate (%)=(Lum drug to be tested −Lum culture medium control)/(Lum cell control−Lum culture medium control)×100%.

CYP2D6 = CYP2D6 (Homo sapiens (Human), UniProt P10635); assay: Inhibition of human liver microsomes CYP450, 2D6; assay type: in vitro ADME; details: compounds 10 μM (positive control: concentration not given)
CYP3A4/5 = assay: Inhibition of human liver microsomes CYP450, 3A4/5; assay type: in vitro ADME; details: compounds 10 μM (positive control: concentration not given)
CYP1A2 = CYP1A2 (Homo sapiens (Human), UniProt P05177); details: microsomes, 10 µM
AXL (h) kinase = AXL (h) kinase (Homo sapiens (Human), UniProt P30530); assay: AXL (h) kinase activity test (EZ Reader mobility shift, FLPeptide30); assay type: biochemical; details: ATP 100 μM, AXL 1 nM
Procedure: The effect of the disclosed compounds as protein kinase inhibitors can be evaluated by the following experiments. The AXL (h) kinase activity of the compounds of the invention is tested by the following methods:
Reagents used in the experiment were AXL (Carna Bioscience, Cat No.: 08-107) and FLPeptide30 (PerkinElmer, Cat No.: 760430). The instruments involved were thermotank (Thermo Scientific), oscillator (QILINBEIER), EZ Reader (PerkinElmer, Cat No.: 122919), Non-contact stage pipetting system (Labcyte Inc., Cat No.: Echo 550), and non-contact nanoliter pipetting system (TECAN, Cat No.: EVO200).
Compound dilution: 1) Dissolve the compound in DMSO to the appropriate concentration; 2) Using TECAN EVO200 to dilute 10 concentrations in 384 microplates by three times gradient, the highest concentration is 1 mM; Echo550 was used to transfer 20 nL solution from the dilution plate to the test plate.
2) Add 15 μL solution 1 to each well of the test plate and incubate at room temperature for 30 minutes.
4) Add 5 μL solution 2 to start the reaction, and the final volume of each well is 20 μL.
5) Incubated at 25° C. for 90 min, and then added 75 μL stop solution (containing 0.5 M EDTA) to terminate the reaction.
6) The sample of each well was analyzed using EZ reader.
1) Based on the measured conversion rate (CR), the Remaining Activity (%) of the kinase was calculated according to the following function:
2) XLFit (Equation 201) software was used to fit IC50.
The above methods can be used to obtain the inhibitory IC50 and/or inhibitory constant Ki.

CYP3A4 [1] = biological target: T1, CYP3A4 (Homo sapiens (Human), UniProt P08684); details: hepatocytes, 2 days, 10 μM
Procedure: (§1) Cryopreservation of human primary hepatocytes was resuscitated in medium after take out from liquid nitrogen. […] Plates were incubated at 37° C. and 5% CO2 for 4-6 hours to confirm the formation of monolayer cells attached to the wall. Then the adherent culture medium was changed into hepatocyte culture medium and the culture was continued overnight.
After the test compounds and positive control inducers were co-incubated with cells, the incubation medium was removed. […] After the samples were extracted and processed, the generation of metabolites and the kinase activities of CYP1A2, 2B6 and 3A4 was quantitatively detected by LC-MS/MS, respectively.
The induction of test substance on each subenzyme was determined by detecting the generation rate of metabolites of CYP450 subenzyme substrates. The relative activity of each subenzyme was expressed as a percentage of the relative blank control, and the data were calculated according to the following formula:
Fold of induction=sample subenzyme activity/blank subenzyme activity
Relative positive control activity (PC %)=(Fold of induction of sample group—Fold of induction of blank group)/(Fold of induction of positive control group—Fold of induction of blank group)×100

CYP3A4 [2] = biological target: T1, CYP3A4; details: hepatocytes, 2 days, 10 μM; remark: listed apart in the source
Procedure: as §1
After the test compound and positive control inducer were co-incubated with cells, the medium was removed and mercaptoethanol was added for cell lysis. Total RNA in cells was extracted with RNA extraction kit, and then transcribed into cDNA with cDNA reverse transcription kit. The 10 μL cDNA template was taken and analyzed on the fluorescence quantitative PCR instrument to obtain the Ct value.
The gene expression data were corrected by internal reference 18S, and the relative expression differences were determined by the method of ΔΔCt commonly used in fluorescence quantitative PCR.
The ΔCt, ΔΔCt and relative expression difference values of the target genes were calculated according to the following formula:
ΔCt=Ct value of target gene−Ct value of internal reference 18S
ΔΔCt=ΔCt of experimental group or positive control group−ΔCt of blank control group
Relative expression difference (fold of induction)=2−ΔΔ^Ct

AXL (h) kinase, sequence (P30530 473-894): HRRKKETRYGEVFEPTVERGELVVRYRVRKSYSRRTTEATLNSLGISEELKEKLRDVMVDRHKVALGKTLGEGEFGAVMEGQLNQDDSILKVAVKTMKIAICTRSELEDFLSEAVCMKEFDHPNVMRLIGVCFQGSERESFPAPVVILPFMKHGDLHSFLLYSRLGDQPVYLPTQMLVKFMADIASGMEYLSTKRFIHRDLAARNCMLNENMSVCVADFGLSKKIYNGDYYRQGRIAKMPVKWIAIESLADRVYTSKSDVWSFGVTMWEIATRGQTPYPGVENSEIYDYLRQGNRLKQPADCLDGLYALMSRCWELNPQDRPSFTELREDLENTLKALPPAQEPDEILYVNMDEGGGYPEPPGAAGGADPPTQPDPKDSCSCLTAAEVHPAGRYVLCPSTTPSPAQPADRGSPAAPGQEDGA
CYP2D6, sequence (P10635 whole entry): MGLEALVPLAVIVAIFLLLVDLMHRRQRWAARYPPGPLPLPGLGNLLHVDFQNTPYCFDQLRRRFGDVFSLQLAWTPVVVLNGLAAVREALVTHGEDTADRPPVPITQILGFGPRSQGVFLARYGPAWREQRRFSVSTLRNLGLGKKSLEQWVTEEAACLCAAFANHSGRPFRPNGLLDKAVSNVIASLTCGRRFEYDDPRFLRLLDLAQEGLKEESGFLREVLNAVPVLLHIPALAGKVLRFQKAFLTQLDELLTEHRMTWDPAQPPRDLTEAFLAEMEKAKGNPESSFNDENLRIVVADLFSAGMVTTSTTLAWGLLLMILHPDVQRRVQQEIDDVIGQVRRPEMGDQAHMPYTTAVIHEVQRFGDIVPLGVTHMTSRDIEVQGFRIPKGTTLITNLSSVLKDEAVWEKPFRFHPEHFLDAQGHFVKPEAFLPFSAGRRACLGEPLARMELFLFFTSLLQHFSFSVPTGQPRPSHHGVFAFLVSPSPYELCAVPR
CYP1A2, sequence (P05177 whole entry): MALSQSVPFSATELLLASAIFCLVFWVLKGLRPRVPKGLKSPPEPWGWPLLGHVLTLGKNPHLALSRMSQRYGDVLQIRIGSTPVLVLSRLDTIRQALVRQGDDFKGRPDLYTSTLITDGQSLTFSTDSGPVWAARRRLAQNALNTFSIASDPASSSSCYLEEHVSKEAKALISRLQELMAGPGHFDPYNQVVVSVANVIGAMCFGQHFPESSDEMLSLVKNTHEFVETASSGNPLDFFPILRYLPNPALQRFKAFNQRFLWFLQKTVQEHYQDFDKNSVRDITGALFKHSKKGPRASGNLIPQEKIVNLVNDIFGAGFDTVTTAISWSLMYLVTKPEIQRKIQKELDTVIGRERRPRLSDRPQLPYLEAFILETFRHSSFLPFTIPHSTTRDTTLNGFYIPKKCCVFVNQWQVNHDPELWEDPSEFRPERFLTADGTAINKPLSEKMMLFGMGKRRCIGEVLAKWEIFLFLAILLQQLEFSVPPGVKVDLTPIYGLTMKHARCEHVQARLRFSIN

| SMILES | IC50 (Ba/F3 AXL cells) [nM] | Inhibitory rate (%) 2D6 (CYP2D6) | Inhibitory rate (%) 3A4/5 (CYP3A4/5) | Inhibitory rate (%) 1A2 (CYP1A2) | IC50 (AXL (h) kinase) [nM] | Enzymatic activity CYP3A4 Fold of induction (CYP3A4 [1]) | Gene expression CYP3A4 Fold of induction (CYP3A4 [2]) |
| --- | --- | --- | --- | --- | --- | --- | --- |
| CC(C)C(=O)N1CCC(c2cc(-c3ccc(NC(=O)c4c5n(n(-c6ccccc6)c4=O)CCOC5)cc3)c3c(N)ncnn23)CC1 [example 3, N-(4-(4-amino-7-(1-isobutyrylpiperidin-4-yl)pyrrolo[2,1-f][1,2,4]triazin-5-yl)phenyl)-2-oxo-1-phenyl-2,4,6,7-tetrahydro-1H-pyrazolo[5,1-c][1,4]oxazine-3-carboxamide] | < 5 |  | No inhibition |  | 5 to 50 | 0.801 | 4.40 |
| CC(C)C(=O)N1CCC(c2cc(-c3ccc(NC(=O)c4c5n(n(-c6ccccc6)c4=O)CCOC5)cc3F)c3c(N)ncnn23)CC1 [example 8, N-(4-(4-amino-7-(1-isobutyrylpiperidin-4-yl)pyrrolo[2,1-f][1,2,4]triazin-5-yl)-3-fluorophenyl)-2-oxo-1-phenyl-2,4,6,7-tetrahydro-1H-pyrazolo[5,1-c][1,4]oxazine-3-carboxamide] | < 5 | No inhibition |  |  | 5 to 50 |  |  |
| Nc1ncnn2c1c(-c1ccc(NC(=O)c3c4n(n(-c5ccccn5)c3=O)CCOC4)cc1F)cc2[C@H]1CC[C@H](O)CC1 [example 31, N-(4-(4-amino-7-((1r,4r)-4-hydroxycyclohexyl)pyrrolo[2,1-f][1,2,4]triazin-5-yl)-3-fluorophenyl)-2-oxo-1-(pyridin-2-yl)-2,4,6,7-tetrahydro-1H-pyrazolo[5,1-c][1,4]oxazine-3-carboxamide] | < 5 |  | No inhibition |  | 5 to 50 | 0.913 | 0.944 |

Now from value to molecule:

| IC50 (Ba/F3 AXL cells) [nM] | Inhibitory rate (%) 2D6 (CYP2D6) | Inhibitory rate (%) 3A4/5 (CYP3A4/5) | Inhibitory rate (%) 1A2 (CYP1A2) | IC50 (AXL (h) kinase) [nM] | Enzymatic activity CYP3A4 Fold of induction (CYP3A4 [1]) | Gene expression CYP3A4 Fold of induction (CYP3A4 [2]) | SMILES |
| --- | --- | --- | --- | --- | --- | --- | --- |
| < 5 | No inhibition | No inhibition |  |  |  |  | CC(C)C(=O)N1CCC(c2cc(-c3ccc(NC(=O)c4c5n(n(-c6ccccc6)c4=O)CCCC5)nc3)c3c(N)ncnn23)CC1 [example 11, N-(5-(4-amino-7-(1-isobutyrylpiperidin-4-yl)pyrrolo[2,1-f][1,2,4]triazin-5-yl)pyridin-2-yl)-2-oxo-1-phenyl-1,2,4,5,6,7-hexahydropyrazolo[1,5-a]pyridine-3-carboxamide] |
| < 5 | No inhibition | No inhibition | No inhibition |  |  |  | Nc1ncnn2c(C3CCC(O)CC3)cc(-c3ccc(NC(=O)c4c5n(n(-c6ccccc6)c4=O)CCCC5)nc3)c12 (stereo not shown) [example 21, N-(5-(4-amino-7-(4-hydroxycyclohexyl)pyrrolo[2,1-f][1,2,4]triazin-5-yl)pyridin-2-yl)-2-oxo-1-phenyl-1,2,4,5,6,7-hexahydropyrazolo[1,5-a]pyridine-3-carboxamide] |
| < 5 |  | No inhibition |  | 5 to 50 | 1.26 | 276 | CC(C)C(=O)N1CCC(c2cc(-c3ccc(NC(=O)c4c5n(n(-c6ccccc6)c4=O)CCCC5)cc3F)c3c(N)ncnn23)CC1 [example 16, N-(4-(4-amino-7-(1-isobutyrylpiperidin-4-yl)pyrrolo[2,1-f][1,2,4]triazin-5-yl)-3-fluorophenyl)-2-oxo-1-phenyl-1,2,4,5,6,7-hexahydropyrazolo[1,5-a]pyridine-3-carboxamide] |
